Read-outs that look alike come from different tables or passages of the source. *1 amine or outer side, *2 acyl side, *3 side chain or, on linkers, in order; H or OH if unused. Where a SMILES comes first, the peptide text is derived from it. Bridges are numbered along the chain shown (N, C = ends). [ ]: non-standard residue; d: D form. The star is where a group is joined. X172 = CC(=O)N1CC=C(c2ccc(F)cc2C[C@@H](C(=O)[*:2])N(C)[*:1])CC1; X26 = CN([C@@H](Cc1cc(F)ccc1-c1cnn(C2CC2)c1)C(=O)[*:2])[*:1]; NMe3Pal(2-OiBu,5-Cl) = CN[C@@H](Cc1cc(Cl)cnc1OCC(C)C)C(=O)O; NMehhhLys(Me) = CN([C@@H](CCCCCCCN(C)[*:3])C(=O)[*:2])[*:1]; X180 = CN([C@@H](Cc1cc(F)ccc1-c1cnn2c1CCC2)C(=O)[*:2])[*:1]; X135 = CN([C@@H](Cc1cc(Cl)ccc1-c1cn(C)cn1)C(=O)[*:2])[*:1]; X112 = CN([C@@H](Cc1cc(F)ccc1-c1cnn(C)c1)C(=O)[*:2])[*:1]; X131 = CN([C@@H](Cc1cc(F)cnc1-c1cnn(C)c1)C(=O)[*:2])[*:1]; X154 = Cc1oncc1-c1ccc(Cl)cc1C[C@@H](C(=O)[*:2])N(C)[*:1]; NMe(hhhLys) = CN([C@@H](CCCCCCCN[*:3])C(=O)[*:2])[*:1]; Oxane2carbonyl(2R-CF3) = O=C([C@@]1(C(F)(F)F)CCCCO1)*; cBuCO(3,3-F2-1-CF3) = O=C(C1(C(F)(F)F)CC(F)(F)C1)*; Pro(trans-4-F) = O=C(O)[C@@H]1C[C@@H](F)CN1; Gly(cPr) = N[C@H](C(=O)O)C1CC1
Experiments:
OVCAR3 cells = test: MTT proliferation assay, OVCAR3; assay type: cell-based; settings: 5 days compound exposure, 1:3 serial dilution starting at 10 μM;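 further: compound given as an 8- or 10-point series, one day after plating, with exposure covering roughly 3-4 cell doublings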
CyclinE1/CDK2 = molecular target: T1, CyclinE1/CDK2 (Homo sapiens, UniProt P24864); test: Fluorescence Polarization (FP) competitive binding assay, Cyclin E1/Cdk2;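 further: readings taken after two-hour equilibration at room temperature in HEPES buffer with NaCl, DTT, NP-40 and BSA, IC50 fitted from eight-concentration serial dilution series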
T1 construct: purchased Eurofins, discovery 14-475

CyclinA2/CDK2 = molecular target: T2, CyclinA2/CDK2 (Homo sapiens, UniProt P20248); test: Fluorescence Polarization (FP) competitive binding assay, Cyclin A2/Cdk2;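 further: plates equilibrated two hours at room temperature before polarization reading, IC50 fitted from eight-concentration compound titration curves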
T2 construct: purchased CRELUX Protein Services

CyclinB1/CDK1 = molecular target: T3, CyclinB1/CDK1 (Homo sapiens, UniProt P14635); test: Fluorescence Polarization (FP) competitive binding assay, Cyclin B1/Cdk1;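 further: fluorescence polarization read after equilibration at room temperature, with IC50 taken from serially diluted dose-response curves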
T3 construct: purchased Eurofins, discovery 14-450

NCI-H1048 cells = test: MTT proliferation assay, NCI-H1048; assay type: cell-based; settings: 5 days compound exposure, 1:3 serial dilution starting at 10 μM;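 further: Dose-response in 96-well plates over 8 or 10 concentration points, with exposure spanning 3-4 cell doublings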
[1] = read-out: Cyclin B FP IC50; 10 nM Cyclin B1/Cdk1, 2 nM FAM probe; average of 2-3 independent experiments
[2] = 10 nM Cyclin E1/Cdk2, 2 nM FAM probe, average of 2-3 independent experiments, read-out: Cyclin E FP IC50
[3] = 8 nM Cyclin A2/Cdk2, 2 nM FAM probe, average of 2-3 independent experiments, read-out: Cyclin A FP IC50
[4] = 10 nM Cyclin B1/Cdk1, 2 nM FAM probe; average of 2-3 independent experiments; read-out: Cyclin B FP IC50
[5] = read-out: Cyclin A FP IC50, 8 nM Cyclin A2/Cdk2, 2 nM FAM probe, average of 2-3 independent experiments

Compound | GI50 (OVCAR3 cells) [nM] | IC50 (CyclinE1/CDK2) [nM] | IC50 (CyclinA2/CDK2) [nM] | IC50 (CyclinB1/CDK1; [1]) [nM] | GI50 (NCI-H1048 cells) [nM] | IC50 (CyclinE1/CDK2; [2]) [nM] | IC50 (CyclinA2/CDK2; [3]) [nM] | IC50 (CyclinB1/CDK1; [4]) [nM] | IC50 (CyclinA2/CDK2; [5]) [nM]
Cc1oncc1-c1ccc(Cl)cc1C[C@H]1C(=O)N(C)CCCCCCC[C@H](N(C)C(=O)[C@@H](NC(=O)[C@@H]2C[C@@H](F)CN2C(=O)C2(C(F)(F)F)CC(F)(F)C2)C2CC2)C(=O)N[C@@H](CC(C)C)C(=O)N1C [Example 212] ({cBuCO(3,3-F2-1-CF3)}-[Pro(trans-4-F)][Gly(cPr)][NMehhhLys(Me)]L[X154]; lactam 3-C) | 80 | 4160 | 70 | 20 | 80 |  |  |  | 
CC(C)C[C@@H]1NC(=O)[C@@H](N(C)C(=O)[C@@H](NC(=O)[C@@H]2C[C@@H](F)CN2C(=O)C2(C(F)(F)F)CC(F)(F)C2)C2CC2)CCCCCCCNC(=O)[C@H](Cc2cc(F)ccc2-c2cnn(C3CC3)c2)N(C)C1=O [Example 213] ({cBuCO(3,3-F2-1-CF3)}-[Pro(trans-4-F)][Gly(cPr)][NMe(hhhLys)]L[X26]; lactam 3-C) | 10 |  |  |  | 10 | 190 | 30 | 20 | 
CC(C)C[C@@H]1NC(=O)[C@@H](N(C)C(=O)[C@@H](NC(=O)[C@@H]2C[C@@H](F)CN2C(=O)C2(C(F)(F)F)CC(F)(F)C2)C2CC2)CCCCCCCNC(=O)[C@H](Cc2cc(F)ccc2-c2cnn3c2CCC3)N(C)C1=O [Example 214] ({cBuCO(3,3-F2-1-CF3)}-[Pro(trans-4-F)][Gly(cPr)][NMe(hhhLys)]L[X180]; lactam 3-C) | 10 | 500 | 50 | 20 | 10 |  |  |  | 
CC(C)C[C@@H]1NC(=O)[C@@H](N(C)C(=O)[C@@H](NC(=O)[C@@H]2C[C@@H](F)CN2C(=O)C2(C(F)(F)F)CC(F)(F)C2)C2CC2)CCCCCCCNC(=O)[C@H](Cc2cc(F)ccc2-c2cnn(C)c2)N(C)C1=O [Example 215] ({cBuCO(3,3-F2-1-CF3)}-[Pro(trans-4-F)][Gly(cPr)][NMe(hhhLys)]L[X112]; lactam 3-C) | 10 | 200 |  | 20 | 10 |  |  |  | 20
CC(=O)N1CC=C(c2ccc(F)cc2C[C@H]2C(=O)NCCCCCCC[C@H](N(C)C(=O)[C@@H](NC(=O)[C@@H]3C[C@@H](F)CN3C(=O)C3(C(F)(F)F)CC(F)(F)C3)C3CC3)C(=O)N[C@@H](CC(C)C)C(=O)N2C)CC1 [Example 217] ({cBuCO(3,3-F2-1-CF3)}-[Pro(trans-4-F)][Gly(cPr)][NMe(hhhLys)]L[X172]; lactam 3-C) | 20 |  |  |  | 10 | 760 | 30 | 20 | 
CC(C)COc1ncc(Cl)cc1C[C@H]1C(=O)N(C)CCCCCCC[C@H](N(C)C(=O)[C@@H](NC(=O)[C@@H]2C[C@@H](F)CN2C(=O)[C@@]2(C(F)(F)F)CCCCO2)C2CC2)C(=O)N[C@@H](CC(C)C)C(=O)N1C [Example 229] ({Oxane2carbonyl(2R-CF3)}-[Pro(trans-4-F)][Gly(cPr)][NMehhhLys(Me)]L[NMe3Pal(2-OiBu,5-Cl)]; lactam 3-C) | 20 | 100 |  | 20 | 10 |  |  |  | 20
CC(C)C[C@@H]1NC(=O)[C@@H](N(C)C(=O)[C@@H](NC(=O)[C@@H]2C[C@@H](F)CN2C(=O)C2(C(F)(F)F)CC(F)(F)C2)C2CC2)CCCCCCCN(C)C(=O)[C@H](Cc2cc(Cl)ccc2-c2cn(C)cn2)N(C)C1=O [Example 242] ({cBuCO(3,3-F2-1-CF3)}-[Pro(trans-4-F)][Gly(cPr)][NMehhhLys(Me)]L[X135]; lactam 3-C) | 20 | 700 | 30 | 20 | 30 |  |  |  | 
CC(C)C[C@@H]1NC(=O)[C@@H](N(C)C(=O)[C@@H](NC(=O)[C@@H]2C[C@@H](F)CN2C(=O)C2(C(F)(F)F)CC(F)(F)C2)C2CC2)CCCCCCCN(C)C(=O)[C@H](Cc2cc(F)cnc2-c2cnn(C)c2)N(C)C1=O [Example 244] ({cBuCO(3,3-F2-1-CF3)}-[Pro(trans-4-F)][Gly(cPr)][NMehhhLys(Me)]L[X131]; lactam 3-C) | 40 |  |  |  | 100 | 580 | 60 | 20 | 

— US20240408169A1 (priority 2023, published 2024)
